Experimental findings from ChEMBL document CHEMBL1781985, “Carbonic anhydrase inhibitors. Phenacetyl-, pyridylacetyl- and thienylacetyl-substituted aromatic sulfonamides act as potent and selective isoform VII inhibitors” (Bioorg Med Chem Lett, 2009) are described below.

Among the targets are Carbonic anhydrase 2 (Homo sapiens, UniProt P00918); Carbonic anhydrase 1 (Homo sapiens, UniProt P00915); Carbonic anhydrase 7 (Homo sapiens, UniProt P43166).

Sequence of Carbonic anhydrase 1 (P00915 whole entry): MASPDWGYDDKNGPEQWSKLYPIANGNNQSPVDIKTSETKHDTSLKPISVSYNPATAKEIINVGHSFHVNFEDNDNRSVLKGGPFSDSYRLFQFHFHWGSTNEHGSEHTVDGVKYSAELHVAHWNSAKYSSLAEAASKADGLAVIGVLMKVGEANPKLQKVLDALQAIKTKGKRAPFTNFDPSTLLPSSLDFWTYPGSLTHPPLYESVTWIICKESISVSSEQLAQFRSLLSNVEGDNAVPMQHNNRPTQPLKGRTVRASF
Sequence of Carbonic anhydrase 7 (P43166 whole entry): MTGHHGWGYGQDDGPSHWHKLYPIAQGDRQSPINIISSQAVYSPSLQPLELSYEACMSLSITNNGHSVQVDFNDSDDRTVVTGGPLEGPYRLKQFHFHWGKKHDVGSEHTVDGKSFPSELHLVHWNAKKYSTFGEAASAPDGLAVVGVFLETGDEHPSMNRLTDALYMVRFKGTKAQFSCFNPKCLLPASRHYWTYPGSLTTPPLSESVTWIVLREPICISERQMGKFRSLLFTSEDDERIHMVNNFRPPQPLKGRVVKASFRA

Turning to `NS(=O)(=O)c1ccc(NC(=O)Cc2cccs2)cc1`, the Ki was determined as 50 nM on Carbonic anhydrase 2, 61 nM at Carbonic anhydrase 1 and 6.2 nM at Carbonic anhydrase 7.
In the same order, the values of `NS(=O)(=O)c1ccc(CNC(=O)Cc2cccs2)cc1` are 52 nM, 60 nM and 7.1 nM.
In the same order, the values of `NS(=O)(=O)c1ccc(NC(=O)Cc2ccccc2)cc1` are 107 nM, 108 nM and 4.7 nM.
The corresponding values for `NS(=O)(=O)c1ccc(CCNC(=O)Cc2cccs2)cc1` are 53 nM, 68 nM and 7.6 nM.

One may read the Ki as the equilibrium dissociation constant of an inhibitor or competing ligand from its target.
